{"source": "patent US10760110B2", "about": "“Antibiotic testing and screening system” (priority 2017, dated 2020)", "key": {"[1]": {"system": "K. pneumoniae NVT1001 strains with QnrB, QnrS or AAC(6′)-Ib-cr plasmids", "assay": "Etest MIC of quinolones, GyrA/ParC mutations, ΔramR and/or QnrB, QnrS or AAC(6′)-Ib-cr (Table 12)", "type": "cell-based", "details": "Klebsiella pneumoniae", "protocol": "DNA fragments of the resistance genes along with their flanking regions were amplified from clinical plasmids via PCR with specific primer pairs. The resulting PCR fragments were digested and then cloned into the plasmid pACYC177 or pACYC184. The resulting plasmids were then transformed into K. pneumoniae strain NVT1001 via electroporation. The recombinant bacteria were plated onto LB agar plates containing kanamycin (50 mg/L) or chloramphenicol (50 mg/L), and the presence of the cloned gene was confirmed via PCR and DNA sequencing.\n(§1) The MICs of antibiotics were determined using the Etest (Biodisk AB, Sweden) according to the manufacturer's instructions. The MICs from the Etest, which fall between standard two-fold dilutions, were rounded up to the next highest two-fold value. The MICs of ceftazidime and cefotaxime against K. pneumoniae NVT1001 harbouring the pACYC177 plasmid with blaOXA-48 were further determined using a broth microdilution test according to the recommendations of the CLSI,^25 and the results were interpreted according to the breakpoints established by the CLSI in 2017.^25 Meanwhile, due to the lack of CLSI breakpoints in 2016 and 2017, the results for cephalothin were interpreted according to the breakpoints established by the CLSI in 2015,^26 and the results for moxifloxacin were interpreted according to the breakpoints established by the EUCAST in 2017.^27"}, "[2]": {"system": "K. pneumoniae NVT1001 and its GyrA/ParC and ΔramR mutants", "assay": "Etest MIC of quinolones, GyrA/ParC mutations and AcrAB-TolC overexpression (ΔramR) (Table 10)", "type": "cell-based", "details": "Klebsiella pneumoniae", "from_the_text": "DNA fragments of the entire gyrA and parC sequences along with their flanking regions were amplified from K. pneumoniae strain NVT1001 using PCR with specific primer pairs and then cloned into the plasmid pUT-KB. The QuikChange site-directed mutagenesis kit (Stratagene) was used to generate mutations in the gyrA and parC genes in the plasmid using the methods described by the manufacturer. For homologous recombination, plasmids containing mutations in the gyrA or parC gene were transformed into E. coli S17-1 λpir^23 via electroporation and mobilized into K. pneumoniae strain NVT1001 via conjugation. Single-crossover strains were selected from BIND plates supplemented with kanamycin (50 mg/L), as the growth of non-K. pneumoniae contaminants is suppressed on BIND plates.^24 After the kanamycin-resistant transconjugants were selected, the insertion of plasmids was verified via PCR. After incubation in 20 mL BHI broth for 6 hours at 37° C. in the absence of kanamycin, the fully grown cultures were spread onto LB agar plates supplemented with 10% sucrose. After the double crossover occurred, the sucrose-resistant and kanamycin-susceptible colonies were selected, and the gene mutations were confirmed via PCR.\nas §1"}}, "note": "Read-outs that look alike come from different tables or passages of the source."}
{"smiles": "CC1COc2c(N3CCN(C)CC3)c(F)cc3c(=O)c(C(=O)O)cn1c23", "note": "(centres unmarked) [Ofloxacin, ofloxacin]", "values": [{"measurement": "MIC", "setting": "[1]; AAC(6′)-Ib-cr on pACYC177, S83I mutant", "result": 4, "unit": "µg/mL"}, {"measurement": "MIC", "setting": "[1]; AAC(6′)-Ib-cr on pACYC177, S83I/D87N/S80I mutant", "result": 32, "unit": "µg/mL"}, {"measurement": "MIC", "setting": "[1]; AAC(6′)-Ib-cr on pACYC177, S83I/S80I mutant", "result": 8, "unit": "µg/mL"}, {"measurement": "MIC", "setting": "[1]; AAC(6′)-Ib-cr on pACYC177, WT (NVT1001), read-out: MIC", "result": 0.25, "unit": "µg/mL"}, {"measurement": "MIC", "setting": "[1]; AAC(6′)-Ib-cr on pACYC177, ΔramR mutant", "result": 2, "unit": "µg/mL"}, {"measurement": "MIC", "setting": "[1]; AAC(6′)-Ib-cr on pACYC177, ΔramR/S83I mutant", "result": "> 32", "unit": "µg/mL"}, {"measurement": "MIC", "setting": "[1]; AAC(6′)-Ib-cr on pACYC177, ΔramR/S83I/D87N/S80I mutant", "result": "> 32", "unit": "µg/mL"}, {"measurement": "MIC", "setting": "[1]; AAC(6′)-Ib-cr on pACYC177, ΔramR/S83I/S80I mutant", "result": "> 32", "unit": "µg/mL"}, {"measurement": "MIC", "setting": "[1]; QnrB on pACYC177, S83I mutant", "result": 8, "unit": "µg/mL"}, {"measurement": "MIC", "setting": "[1]; QnrB on pACYC177, S83I/D87N/S80I mutant", "result": "> 32", "unit": "µg/mL"}, {"measurement": "MIC", "setting": "[1]; QnrB on pACYC177, S83I/S80I mutant", "result": "> 32", "unit": "µg/mL"}, {"measurement": "MIC", "setting": "[1]; QnrB on pACYC177, WT (NVT1001), read-out: MIC", "result": 4, "unit": "µg/mL"}, {"measurement": "MIC", "setting": "[1]; QnrB on pACYC177, ΔramR mutant", "result": 32, "unit": "µg/mL"}, {"measurement": "MIC", "setting": "[1]; QnrB on pACYC177, ΔramR/S83I mutant", "result": "> 32", "unit": "µg/mL"}, {"measurement": "MIC", "setting": "[1]; QnrB on pACYC177, ΔramR/S83I/D87N/S80I mutant", "result": "> 32", "unit": "µg/mL"}, {"measurement": "MIC", "setting": "[1]; QnrB on pACYC177, ΔramR/S83I/S80I mutant", "result": "> 32", "unit": "µg/mL"}, {"measurement": "MIC", "setting": "[1]; QnrS on pACYC177, S83I mutant", "result": 8, "unit": "µg/mL"}, {"measurement": "MIC", "setting": "[1]; QnrS on pACYC177, S83I/D87N/S80I mutant", "result": "> 32", "unit": "µg/mL"}, {"measurement": "MIC", "setting": "[1]; QnrS on pACYC177, S83I/S80I mutant", "result": "> 32", "unit": "µg/mL"}, {"measurement": "MIC", "setting": "[1]; QnrS on pACYC177, WT (NVT1001), read-out: MIC", "result": 4, "unit": "µg/mL"}, {"measurement": "MIC", "setting": "[1]; QnrS on pACYC177, ΔramR mutant", "result": 16, "unit": "µg/mL"}, {"measurement": "MIC", "setting": "[1]; QnrS on pACYC177, ΔramR/S83I mutant", "result": "> 32", "unit": "µg/mL"}, {"measurement": "MIC", "setting": "[1]; QnrS on pACYC177, ΔramR/S83I/D87N/S80I mutant", "result": "> 32", "unit": "µg/mL"}, {"measurement": "MIC", "setting": "[1]; QnrS on pACYC177, ΔramR/S83I/S80I mutant", "result": "> 32", "unit": "µg/mL"}, {"measurement": "MIC", "setting": "[1]; no supplemental plasmid, S83I mutant", "result": 2, "unit": "µg/mL"}, {"measurement": "MIC", "setting": "[1]; no supplemental plasmid, S83I/D87N/S80I mutant", "result": 32, "unit": "µg/mL"}, {"measurement": "MIC", "setting": "[1]; no supplemental plasmid, S83I/S80I mutant", "result": 4, "unit": "µg/mL"}, {"measurement": "MIC", "setting": "[1]; no supplemental plasmid, WT (NVT1001), read-out: MIC", "result": 0.25, "unit": "µg/mL"}, {"measurement": "MIC", "setting": "[1]; no supplemental plasmid, ΔramR mutant", "result": 2, "unit": "µg/mL"}, {"measurement": "MIC", "setting": "[1]; no supplemental plasmid, ΔramR/S83I mutant", "result": "> 32", "unit": "µg/mL"}, {"measurement": "MIC", "setting": "[1]; no supplemental plasmid, ΔramR/S83I/D87N/S80I mutant", "result": "> 32", "unit": "µg/mL"}, {"measurement": "MIC", "setting": "[1]; no supplemental plasmid, ΔramR/S83I/S80I mutant", "result": "> 32", "unit": "µg/mL"}, {"measurement": "MIC", "setting": "[2]; D87N mutant (GyrA D87N)", "result": 1, "unit": "µg/mL"}, {"measurement": "MIC", "setting": "[2]; D87N/S80I mutant", "result": 1, "unit": "µg/mL"}, {"measurement": "MIC", "setting": "[2]; NVT1001, read-out: MIC", "result": 0.25, "unit": "µg/mL"}, {"measurement": "MIC", "setting": "[2]; S80I mutant (ParC S80I)", "result": 0.25, "unit": "µg/mL"}, {"measurement": "MIC", "setting": "[2]; S83F mutant (GyrA S83F)", "result": 2, "unit": "µg/mL"}, {"measurement": "MIC", "setting": "[2]; S83F/D87N mutant", "result": 2, "unit": "µg/mL"}, {"measurement": "MIC", "setting": "[2]; S83F/D87N/S80I mutant", "result": 16, "unit": "µg/mL"}, {"measurement": "MIC", "setting": "[2]; S83F/S80I mutant", "result": 2, "unit": "µg/mL"}, {"measurement": "MIC", "setting": "[2]; S83I mutant (GyrA S83I)", "result": 2, "unit": "µg/mL"}, {"measurement": "MIC", "setting": "[2]; S83I/D87N mutant", "result": 2, "unit": "µg/mL"}, {"measurement": "MIC", "setting": "[2]; S83I/D87N/S80I mutant", "result": 32, "unit": "µg/mL"}, {"measurement": "MIC", "setting": "[2]; S83I/S80I mutant", "result": 4, "unit": "µg/mL"}, {"measurement": "MIC", "setting": "[2]; S83L mutant (GyrA S83L)", "result": 2, "unit": "µg/mL"}, {"measurement": "MIC", "setting": "[2]; S83L/D87N mutant", "result": 2, "unit": "µg/mL"}, {"measurement": "MIC", "setting": "[2]; S83L/D87N/S80I mutant", "result": 32, "unit": "µg/mL"}, {"measurement": "MIC", "setting": "[2]; S83L/S80I mutant", "result": 4, "unit": "µg/mL"}, {"measurement": "MIC", "setting": "[2]; S83Y mutant (GyrA S83Y)", "result": 2, "unit": "µg/mL"}, {"measurement": "MIC", "setting": "[2]; S83Y/D87N mutant", "result": 2, "unit": "µg/mL"}, {"measurement": "MIC", "setting": "[2]; S83Y/D87N/S80I mutant", "result": 16, "unit": "µg/mL"}, {"measurement": "MIC", "setting": "[2]; S83Y/S80I mutant", "result": 2, "unit": "µg/mL"}, {"measurement": "MIC", "setting": "[2]; ΔramR mutant", "result": 2, "unit": "µg/mL"}, {"measurement": "MIC", "setting": "[2]; ΔramR/S83I mutant", "result": "> 32", "unit": "µg/mL"}, {"measurement": "MIC", "setting": "[2]; ΔramR/S83I/D87N/S80I mutant", "result": "> 32", "unit": "µg/mL"}, {"measurement": "MIC", "setting": "[2]; ΔramR/S83I/S801 mutant", "result": "> 32", "unit": "µg/mL"}]}
